Measurements published in patent publication US12358921B2, “Antiviral heterocyclic compounds” (priority 2022, dated 2025).

Legend:
[1] = tested on: HUMAN RSV-A (“LONG” STRAIN); experiment: RSV-A assay (CPE, ATPlite) in Hep-2 cells; assay type: cell-based; settings: human respiratory syncytial virus, 120 h, MOI 0.1, 5-day incubation
Method in brief: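 Protection from RSV cytopathic effect read by ATP luminescence (ATPlite) after 5-day culture. Genotype A "Long" virus added at MOI 0.1 to Hep-2 monolayers at 8,000 cells/well, pre-dosed with duplicate 2-fold compound dilutions; controls include infected untreated and uninfected wells. EC50 values binned into ranges.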

hMPV A2 TN/94-49 = experiment: HMPV antiviral assay Method 1 (LLC-MK2 cells, ATP-Lite); assay type: cell-based; settings: hMPV A2 TN/94-49, LLC-MK2 cells
Description: In vitro HMPV antiviral activity was evaluated using the clinical isolate A2 strain TN 94-49 (obtained from Dr. John Williams, Vanderbilt University, Tennessee) and […] cells (ATCC #CCL-7), an immortalized kidney epithelial cell line from Macaca mulatta. Compounds were resuspended in dimethyl sulfoxide (DMSO) at 10 mM, serially diluted and added to a 384-well source plate. Subsequently, the compounds were diluted and transferred onto 384-well assay plates using the Echo-650 automated liquid handling system (Beckman Coulter, Indiana). The test compounds were assessed in duplicate at a top concentration of 2 μM followed by 2.5-fold serial dilutions to give a total of 10 concentration points. DMSO control wells were also included on the assay plates and were either infected or not, acting as positive and negative controls. A2 TN 94-49 virus infections were performed in-suspension with LLC-MK2 cells. The cells were washed twice with PBS and removed from the cell-culture flask with 0.25% trypsin-EDTA (Thermo Fisher Scientific, MA). The trypsin-EDTA was inactivated by resuspending in 2% fetal bovine serum (FBS) and OptiMEM (ThermoFisher Scientific, MA) containing 1% penicillin-streptomycin. Cells were pelleted by centrifuging for 5 minutes at 800 rpm, the supernatant was removed, and cells were re-suspended and washed in PBS plus 100 μg/mL CaCl2). This step was performed twice. Cells were then re-suspended in serum-free (SF)-OptiMEM containing 4 μg/mL TPCK-Trypsin (Sigma Aldrich, MO), 1% penicillin-streptomycin (ThermoFisher Scientific, MA) and 100 μg/mL CaCl2). Cells were counted and seeded at a density of 5,000 cells/well, 12.5 μL/well. Virus infections were done at a multiplicity of infection (MOI) of 0.005 with 12.5 μL added per well. Virus infections were performed in infection media which contained SF-OptiMEM, 100 μg/mL CaCl2) and 1% penicillin-streptomycin. HMPV viral stocks are suspended in infection media+5% glycerol, thus an equal volume of infection media+5% glycerol was added to uninfected wells to equalize the final % glycerol across all wells of the assay plate. The final concentration of TPCK-trypsin was 2 μg/mL. The assay plates were incubated at 37° C., 5% CO2 for 7 days. After 7 days incubation, 12.5 μL of ATP-Lite (PerkinElmer, MA) was added to each well and the raw luminescence values were determined using the Envision 2104 (Perkin Elmer, MA). The average of the raw luminescence values for the cells and virus only positive control wells was subtracted from all conditions tested and the percent cell health was determined by dividing these values by the average of the cells only negative control wells. EC50 values were then calculated by non-linear regression using a four-parameter curve logistic equation. The curve fit model employed was XLFit Dose Response One Site Model 200: y=(A+(B/(1+((x/C)^D)))), where A is the minimum y value, B is the maximum y value, C is the log EC50value, and D is the slope factor. Method 2: In Vitro HMPV Antiviral Activity was Evaluated Using the Clinical Isolate A2 Strain TN 94-49

EC50 [1] [nM]	EC50 (hMPV A2 TN/94-49) [nM]	SMILES
< 200	< 500	COc1cc(C(=O)NC[C@@](O)(c2ccccc2)c2cc3c(c(-c4ccc5c(c4Cl)OC(F)(F)O5)n2)OC[C@]3(C)C(N)=O)cc2cn(C3CC3)nc12 [Example 251]
< 200	> 500	COc1cc(C(=O)NC[C@](O)(c2cc3c(c(-c4ccc(F)c(CO)c4F)n2)OC[C@]3(C)C(N)=O)C2CC2)cc2cn(C3CC3)nc12 [Example 72]
< 200	< 500	COc1cc(C(=O)NC[C@@](O)(c2cccc(F)c2)c2cc3c(c(-c4ccc5c(c4Cl)OC(F)(F)O5)n2)OC[C@]3(C)C(N)=O)cc2cn(C3CC3)nc12 [Example 274]
< 200	> 500	COc1cc(C(=O)NC[C@](O)(c2cc3c(c(-c4ccc(C)c(C(F)(F)F)c4)n2)OC[C@]3(C)C(N)=O)C2CC2)cc2cn(C3CC3)nc12 [Example 56]
< 200	< 500	COc1cc(C(=O)NC[C@](O)(c2cc3c(c(-c4cc(F)c(F)cc4F)n2)OC[C@]3(C)C(N)=O)C2CC(F)(F)C2)cc2cn(C3CC3)nc12 [Example 31]
< 200	> 500	Cc1nc2c(OC(F)F)cc(C(=O)NC[C@@](O)(c3cccc(F)c3)c3cc4c(c(-c5cc(Cl)c(F)cc5F)n3)OC[C@]4(C)C(N)=O)cc2cc1Br [Example 135]
< 200	< 500	COc1cc(C(=O)NC[C@@](O)(c2ccsc2)c2cc3c(c(-c4cc(Cl)c(F)cc4F)n2)OC[C@]3(C)C(N)=O)cc2cn(C3CC3)nc12 [Example 173]
< 200	< 500	COc1cc(C(=O)NC[C@@](O)(c2ccc(F)cc2)c2cc3c(c(-c4ccc(F)c(Cl)c4Cl)n2)OC[C@]3(C)C(N)=O)cc2cn(C(F)F)nc12 [Example 42]
< 200	< 500	COc1cc(C(=O)NC[C@](O)(c2cc3c(c(-c4cc(Cl)c(F)cc4F)n2)OC[C@]3(C)C(N)=O)c2cc(C)cs2)cc2cn(C3CC3)nc12 [Example 467]
< 200	< 500	[2H]C([2H])([2H])c1nc2c(OC)cc(C(=O)NC[C@@](O)(c3ccc(OC)cc3)c3cc4c(c(-c5cc(Cl)c(F)cc5F)n3)OC[C@]4(C)C(N)=O)cc2s1 [Example 168]
< 200	> 500	COc1cc(C(=O)NC[C@](O)(c2cc3c(c(-c4cc(Cl)c(C)cc4F)n2)OC[C@]3(C)C(N)=O)C2CC2)cc2cn(C3CC3)nc12 [Example 51]
< 200	< 500	[2H]C([2H])([2H])c1cc2cc(C(=O)NC[C@](O)(c3cc4c(c(-c5cc(Cl)c(F)cc5F)n3)OC[C@]4(C)C(N)=O)C3CC3)cc(OC)c2nc1C([2H])([2H])[2H] [Example 29]
< 200	< 500	COc1cc(C(=O)NC[C@@](O)(c2ccsc2)c2cc3c(c(-c4cc(Cl)c(F)cc4F)n2)OC[C@]3(C)C(N)=O)cc2cn(C3(F)CC3)nc12 [Example 175]
< 200	< 500	COc1cc(C(=O)NC[C@](O)(c2cc3c(c(-c4cc(Cl)c(F)cc4F)n2)OC[C@]3(C)C(N)=O)c2ccccc2F)cc2cc(C3CC3)nn12 [Example 137]
< 200	< 500	COc1cc(C(=O)NC[C@](O)(c2cc3c(c(-c4cc(F)c(F)c(F)c4Cl)n2)OC[C@]3(C)C(N)=O)C(F)(F)F)cc2cn(C3CC3)nc12 [Example 59]
< 200	< 500	C[C@]1(C(N)=O)COc2c1cc([C@@](O)(CNC(=O)c1cc(OC3CC3)c3nn(C4CC4)cc3c1)C1CC1)nc2-c1cc(Cl)c(F)cc1F [Example 2]
< 200	< 500	COc1cc(C(=O)NC[C@@](O)(c2ccccc2)c2cc3c(c(-c4cc(Cl)c(F)cc4F)n2)OC[C@]3(C)C(=O)NC2CC2)cc2cn(C3CC3)nc12 [Example 143]
< 200	< 500	Cc1nc2ccc(C(=O)NC[C@@](O)(c3cccc(F)c3)c3cc4c(c(-c5ccc(F)c(Cl)c5Cl)n3)OC[C@]4(C)C(N)=O)cc2o1 [Example 283]
